Here are results for two compounds from patent US20260355188A1, “COMBINATION THERAPIES USING PRMT5 INHIBITORS AND BCL-2 FAMILY INHIBITORS FOR THE TREATMENT OF CANCER” (MIRATI THERAPEUTICS, INC., priority 2022, published 2026).

One assay concerns Mero84. The assay can be described thus: In vitro combination synergy, Mero84 (Cell-Titer Glo). It counts as cell-based. The conditions noted are these: combined with exemplary PRMT5 inhibitor, 120 h, sum of Loewe, Bliss, HSA and ZIP scores. The protocol: (§1) A panel of MTAP-deleted cancer cell lines was assembled to determine whether combining BCL-2 family inhibitors with exemplary PRMT5 inhibitors disclosed herein results in synergistic activity.
(§2) [Assays for determining the synergy score for the pairwise combinations for each cell line were performed in triplicate. 384 or 96-well plates plus additional wells of a separate 384 or 96-well control plate for determining baseline luminescence were seeded with cells of a particular MTAP-deleted cell line in a suitable growth medium for that cell line, e.g., RPMI 1640 medium supplemented with 10% FBS and any cell line specific reagents needed for growth. The plates were incubated overnight at 37 °C in a 5% CO2 atmosphere.
(§3) To each of the designated baseline wells, Cell-Titer Glo reagent (CTG; Promega Corporation) was added to each well and the plates were incubated for 20 min shaking at room temperature. Baseline luminescence was quantitated using a BMG ClarioStar multimode plate reader according to the manufacturer's instructions.
(§4) A series of 1000× drug dilutions in 100% DMSO was prepared that includes a 9-point single agent 3-fold dilution of the exemplary PRMT5 inhibitor (of the type described in WO2021/050915) with a top dose of 3000 nM (and a 6-point single agent 5-fold dilution of the BCL-2 family inhibitor with a top dose of 3000 nM as reference standards.
(§5) A 10× intermediate dosing plate was prepared in serum free medium that contains arrayed single agent dilutions of exemplary PRMT5 inhibitor (of the type described in WO2021/050915) and or the BCL-2 family inhibitor. In addition, a matrix of 54 dilution combinations of exemplary PRMT5 inhibitor (of the type described in WO2021/050915) and the BCL-2 family inhibitor was prepared as test samples.
(§6) To each corresponding well of the 384-well plates seeded with the appropriate cell line above, 10× single agent and the 54 combinations of the dose matrix was added and the plates were incubated for 120 hours at 37 °C in 5% CO2 atmosphere. Cell-Titer Glo reagent (CTG) was added to each test well, the plates were incubated for 20 min shaking at room temperature, and luminescence was quantitated using a BMG ClarioStar multimode plate reader according to the manufacturer's instructions. To normalize test samples, the determined baseline luminescence was subtracted from each test sample prior to analysis and mean values are calculated from replicate samples.
(§7) The output of the data from each mathematical model is the assignment of a relative synergy score. The data reported in Table 6 are the aggregate sum of the Loewe additivity, Bliss independence, Highest Single Agent and ZIP synergy scores (“Composite Synergy Score”).

The subject of another assay is Mero83. The assay can be described thus: In vitro combination synergy, Mero83 (Cell-Titer Glo). The class given is cell-based. Particulars: combined with exemplary PRMT5 inhibitor, 120 h, sum of Loewe, Bliss, HSA and ZIP scores. The protocol:
as §1, §2, §3, §4, §5, §6, §7

The next assay has as its system H2052. The assay can be described thus: In vitro combination synergy, H2052 (Cell-Titer Glo). It counts as cell-based. Particulars: combined with exemplary PRMT5 inhibitor, 120 h, sum of Loewe, Bliss, HSA and ZIP scores. The protocol: as §1, §2, §3, §4, §5, §6, §7
The next assay has as its system Mero14. The assay can be described thus: In vitro combination synergy, Mero14 (Cell-Titer Glo). Particulars: combined with exemplary PRMT5 inhibitor, 120 h, sum of Loewe, Bliss, HSA and ZIP scores. The class given is cell-based. The protocol: as §1, §2, §3, §4, §5, §6, §7
The next assay concerns HCC4006. The assay can be described thus: In vitro combination synergy, HCC4006 (Cell-Titer Glo). Particulars: combined with exemplary PRMT5 inhibitor, 120 h, sum of Loewe, Bliss, HSA and ZIP scores. It counts as cell-based. The protocol: as §1, §2, §3, §4, §5, §6, §7
Another assay relates to H2452. The assay can be described thus: In vitro combination synergy, H2452 (Cell-Titer Glo). The class given is cell-based. Particulars: combined with exemplary PRMT5 inhibitor, 120 h, sum of Loewe, Bliss, HSA and ZIP scores. The protocol: as §1, §2, §3, §4, §5, §6, §7
In the next assay the test system is RT4. The assay can be described thus: In vitro combination synergy, RT4 (Cell-Titer Glo). The class given is cell-based. Particulars: combined with exemplary PRMT5 inhibitor, 120 h, sum of Loewe, Bliss, HSA and ZIP scores. The protocol: as §1, §2, §3, §4, §5, §6, §7
In the next assay the test system is H2228. The assay can be described thus: In vitro combination synergy, H2228 (Cell-Titer Glo). The class given is cell-based. The conditions noted are these: combined with exemplary PRMT5 inhibitor, 120 h, sum of Loewe, Bliss, HSA and ZIP scores. The protocol:
as §1, §2, §3, §4, §5, §6, §7

In a further assay the test system is Miapaca2. The assay can be described thus: In vitro combination synergy, Miapaca2 (Cell-Titer Glo). It counts as cell-based. Particulars: combined with exemplary PRMT5 inhibitor, 120 h, sum of Loewe, Bliss, HSA and ZIP scores. The protocol: as §1, §2, §3, §4, §5, §6, §7
The subject of another assay is SW1573. The assay can be described thus: In vitro combination synergy, SW1573 (Cell-Titer Glo). It counts as cell-based. The conditions noted are these: combined with exemplary PRMT5 inhibitor, 120 h, sum of Loewe, Bliss, HSA and ZIP scores. The protocol:
as §1, §2, §3, §4, §5, §6, §7

The test system of another assay is H1437. The assay can be described thus: In vitro combination synergy, H1437 (Cell-Titer Glo). It counts as cell-based. The conditions noted are these: combined with exemplary PRMT5 inhibitor, 120 h, sum of Loewe, Bliss, HSA and ZIP scores. The protocol: as §1, §2, §3, §4, §5, §6, §7
The next assay has as its system LU99. The assay can be described thus: In vitro combination synergy, LU99 (Cell-Titer Glo). The conditions noted are these: combined with exemplary PRMT5 inhibitor, 120 h, sum of Loewe, Bliss, HSA and ZIP scores. The class given is cell-based. The protocol: as §1, §2, §3, §4, §5, §6, §7
For the next assay, the system named is SU8686. The assay can be described thus: In vitro combination synergy, SU8686 (Cell-Titer Glo). The conditions noted are these: combined with exemplary PRMT5 inhibitor, 120 h, sum of Loewe, Bliss, HSA and ZIP scores. The class given is cell-based. The protocol:
as §1, §2, §3, §4, §5, §6, §7

The next assay concerns A549. The assay can be described thus: In vitro combination synergy, A549 (Cell-Titer Glo). It counts as cell-based. The conditions noted are these: combined with exemplary PRMT5 inhibitor, 120 h, sum of Loewe, Bliss, HSA and ZIP scores. The protocol: as §1, §2, §3, §4, §5, §6, §7
Another assay relates to H1650. The assay can be described thus: In vitro combination synergy, H1650 (Cell-Titer Glo). It counts as cell-based. The conditions noted are these: combined with exemplary PRMT5 inhibitor, 120 h, sum of Loewe, Bliss, HSA and ZIP scores. The protocol: as §1, §2, §3, §4, §5, §6, §7
The next assay concerns LU99 xenograft tumors. The assay can be described thus: In vivo combination study (LU99 model), Example 1. Details: species or system female nu/nu mice. The conditions noted are these: MRTX1719, ABT-263, ABT-199 each 100 mg/kg PO QD, alone or combined. From the text: Immunodeficient female nu/nu mice were implanted with 5×10^6 LU99 cancer cells in 50% Matrigel. Tumor volume measurements were collected using calipers and determined utilizing the formula 0.5×L×W^2 in which L refers to length and W refers to width of each tumor. When tumors reached approximately 125-150 mm^3, animals were randomized to receive A) vehicle, B) a PRMT5 inhibitor, C) navitoclax (ABT-263), D) venetoclax (ABT-199), E) A-1331852, F) the PRMT5 inhibitor and navitoclax, F) the PRMT5 inhibitor and venetoclax, or G) the PRMT5 inhibitor and A-1331852 all administered orally (PO) with the indicated dose and schedule for 20-34 days. Tumor volume was measured twice a week (n=5/treatment group). Average tumor volume and standard error of the mean was calculated and plotted at each study day using GraphPad Prism.
The PRMT5 inhibitor was MRTX1719 administered at 100 mg/kg once a day (QD). MRTX1719 is (2M)-2-(4-(4-(aminomethyl)-1-oxo-1,2-dihydrophthalazin-6-yl)-1-methyl-1H-pyrazol-5-yl)-4-chloro-6-cyclopropoxy-3-fluorobenzonitrile, disclosed as Example 16-8 at p. 307 of the international patent publication No. WO 2021/050915 A1, published 18 Mar. 2021, incorporated by reference in its entirety.
The BCL-2 family inhibitors used in this example, ABT-199 (venetoclax) and ABT-263 (navitoclax), were administered at 100 mg/kg once a day (QD) and supplied by Selleck Chemicals (Houston, TX).

On to `CN(C)CC#Cc1ccc(OCCCc2sc(N3CCc4cccc(C(=O)Nc5nc6ccccc6s5)c4C3)nc2C(=O)O)c(F)c1` [A-1155463], for which the “Composite Synergy Score” value in the assay on Mero84 is listed as 0; in the assay on Mero83, −11; in the assay on H2052 it was 14; with Mero14, 12; with HCC4006, 88; in the assay with H2452, 37. For the same compound, the “Composite Synergy Score” value in the assay on RT4 stood at 37; in the assay on H2228 it was 46; in the assay on Miapaca2 it was 44; with SW1573 it was 29; in the assay on H1437, 17; in the assay on LU99, 27. The “Composite Synergy Score” value turned out to be 50 in the assay on SU8686, 22 in the assay on A549 and 51 in the assay with H1650.
Consider `CC1(C)CCC(CN2CCN(c3ccc(C(=O)NS(=O)(=O)c4ccc(NCC5CCOCC5)c([N+](=O)[O-])c4)c(Oc4cnc5[nH]ccc5c4)c3)CC2)=C(c2ccc(Cl)cc2)C1` [ABT-199, venetoclax], for which the “Composite Synergy Score” value in the assay on Mero84 is given as −12; with Mero83 it was 20; in the assay with H2052 it was −33; in the assay on Mero14, −8; with HCC4006, −6; with H2452, 28. Moreover, the “Composite Synergy Score” value in the assay on RT4 was 0; in the assay on H2228, −13; in the assay with Miapaca2 it was −7; in the assay on SW1573, −16; in the assay with H1437, 2; in the assay with LU99, −8. In addition, the entries for the “Composite Synergy Score” value with SU8686, in the assay on A549 and with H1650 were 4, −7 and −11, respectively. Also, the “Average Tumor Volume” value is given as 270 mm^3 in the assay on LU99 xenograft tumors (day 3); 462 mm^3 in the assay on LU99 xenograft tumors (day 6); 709 mm^3 with LU99 xenograft tumors (day 10); 956 mm^3 in the assay on LU99 xenograft tumors (day 13); 1395 mm^3 in the assay on LU99 xenograft tumors (day 17); 1675 mm^3 with LU99 xenograft tumors (day 20). Further, the “Average Tumor Volume” value in the assay with LU99 xenograft tumors (day −1) was 153 mm^3.
